# Results reported in patent publication US6174875A, “Benzoquinoid ansamycins for the treatment of cardiac arrest and stroke” (priority 1999, dated 2001).
# How the values were obtained:
# [1] = tested on: HT22 cells; assay: Glutamate-induced cytotoxicity in HT22 cells by phase contrast/light microscopy and trypan blue staining; type: cell-based, mouse
# Description: HT22 cells were seeded on 60 mm tissue culture dishes at 300,000 cells per dish and grown overnight. […] In order to provide a more accurate assessment of glutamate-induced oxidative toxicity, the ability of HT22 cells to metabolize 3-(4,5-[…]-2-yl)-2,5-diphenyl tetrazolium bromide (MTT) was assayed. The reduction of this dye by viable cells can easily be detected spectrophotometrically as described by Mosman (1983) J. Immunol. Methods 65:55 with reduced HT22 cell viability directly correlated with decreased metabolism of MTT (Shubert et al. (1992) Proc. Natl. Acad. Sci. USA 89:8264). HT22 cells were seeded on 96-well plates at 5,000 cells per well and grown for 12 hours. Cells were then treated with 2 mM, 5 mM or 10 mM concentrations of glutamate. […] After a total incubation period of 20 hours, cell viability was measured using an MTT assay as described by Li et al. (1997) Neuron 19:453. Briefly, 10 μl of MTT solution (5 mg/ml) was added to each well and cells incubated for an additional 4 hours. 100 μl of solubilization solution (50% dimethylformamide and 20% SDS, pH 4.8) was added and left on the cells 5 overnight, after which light absorption at 570 nm was measured. Values (% Viability) represent the average of quadruplicate (FIG. 1) or triplicate (FIG. 2) determinations±S.D. Similar results were obtained in a replicate experiment. Cell viability was expressed relative to control cells treated with GA or Herb alone.
# [2] = tested on: glutathione levels in HT22 cells; assay: Cellular glutathione (GSH) levels in HT22 cells (monochlorobimane fluorescence); type: cell-based, mouse; details: 0.1 μg/ml GA, 5 mM glutamate, 2-8 hours (FIG. 3)
# Description: Cellular glutathione (GSH) levels were measured in HT22 cells as described previously by Kane (1993) Science 262:1274. Briefly, HT22 cells were seeded onto 96-well plates at 20,000 cells per well and grown overnight. […] Monochlorobimane was added to 40 μM and following an additional 30 minutes of incubation, fluorescence at 460 nm in response to excitation at 395 mn was measured using a Perkin Elmer fluorescence plate reader. Values represent the average of triplicate experiments±S.D.
smiles,measurement,setting,value
COC1=C2C[C@@H](C)C[C@H](OC)[C@H](O)[C@@H](C)/C=C(\C)[C@H](OC(N)=O)[C@@H](OC)/C=C\C=C(/C)C(=O)NC(=CC1=O)C2=O [geldanamycin],protection from glutamate-induced oxidative toxicity (phase contrast),"[1]; 0.1 μg/ml GA, 5 mM glutamate, GA added at same time or 1, 2 or 6 hours after glutamate",led to protection from glutamate-induced oxidative toxicity
same,"HT22 cell growth rate, GA alone",[1]; GA alone,appeared to reduce HT22 cell growth rate
same,"cell death, GA alone","[1]; GA alone, assessed after 24 hours",did not lead to cell death
same,recovery of glutathione levels,[2],did not lead to recovery of glutathione levels
